# Measurements from US20020161018A1, “Enhancement of the potency and efficacy of local anesthetics with ibutilide and other methanesulfonamide drugs” (priority 2001, published 2002).
# “Also recorded” adds a separate entry of the source. Structures can show the parent of a compound that is named as a salt. Marks after values point to notes of the source that are not given here.
# Experiments:
# male ICR mice [1] = assay: Hot-plate paw-withdrawal test after popliteal (peri-sciatic nerve block) injection; assay type: in vivo; details: for local anesthesia of the drug alone in the presence of 1:200,000 epinephrine: 0.125% bupivacaine or ibutilide (3.9 nmoles), each with 1:200,000 epinephrine; for local anesthesia of the drug alone (paw-withdrawal latency): 0.5% bupivacaine or ibutilide (3.9 nmoles) with vehicle, 60-min time-course, or bupivacaine dose-response at 10-min; for Potency ratio (95% C.L.): 10-min; for % Bupivacaine ED50 (95% C.L.): tested 10-min later
# Method: Animals: Male ICR mice (25-30 gm) were obtained from Harlan Sprague Dawley. The mice were housed in groups of four to six and kept on a 12-h light/12-h dark cycle. Mice were tested during the light cycle; and the original groupings were maintained (i.e., mice were not recombined into new groups or isolated) to decrease infighting and consequent stress that could confound the results. Behavioral Procedures: Following the procedure of Leszczynska and Kau (1992), each mouse was placed on a ¼inch wire mesh screen, which was then inverted; a mouse with no motor defects walks in a characteristic circular pattern, grasping the mesh with each paw and then letting go. Mice that could not walk normally at baseline were not used for testing. […] Baseline paw withdrawal latencies ranged between 2- to 3-sec. After collecting baseline data, the mice were injected with vehicle, ibutilide, or bupivacaine mixed with vehicle or ibutilide. At the appropriate times, motor scores and test paw withdrawal latencies were obtained. A 20-sec cut-off was employed to prevent tissue damage on the hot-plate test. Injection Procedures: Each mouse was injected with drug solution using a 30 gauge,½ inch needle attached to a 1 ml syringe (needle and syringe from Becton Dickinson). The animals were gently restrained, while the limb to be injected was extended to expose the popliteal space, which is behind the knee of the mouse. The needle was inserted in the popliteal space, and 0.05 ml of drug solutions injected. The nerve bundle of the sciatic nerve passes through the popliteal space. Thus, the limb and paw distal to the injection is effectively anesthetized. The motor and sensory tests were then repeated at 5-min intervals for a 1-h period. […] Some mice could place their paw on the screen, but could not grasp the screen with their digits; this was determined to be an intermediate phase. The motor block was determined to be resolved when the mouse could walk on the inverted screen using both the leg and paw. Sensory blockade was assessed by measuring in seconds, the time the bupivacaine-injected paw remained on hot-plate surface before withdrawing it. The test was terminated if the cut-off of 20-sec occurred during the test procedure. For time-course studies, two-factor repeated measures analysis of variance followed by the post hoc Tukey's test was used to assess for significant increases in paw withdrawal latencies compared to baseline. In addition, the effect of ibutilide to enhance bupivacaine was assessed, and compared with the appropriate controls at each time point during the 60-min test period. For dose-response curves, the data was converted to the percentage of maximum possible effect, which was calculated as: % MPE=[(Test−Baseline)/(20 −Baseline)]×100. […] The absence of overlapping confidence limits was used to indicate significant differences in ED50 values between dose-response curves. Potency-ratio values with 95% confidence limits were calculated by the method of Colquhoun (1971). Drugs: Sterile isotonic saline was used to dissolve and dilute drug solutions. Bupivacaine HCl was purchased from the MCV Hospitals Pharmacy (Winthrop Pharmaceuticals, NY, N.Y. ). To assure consistency, the same vial of bupivacaine was used for all injections involving bupivicaine. The concentration was varied by either diluting with normal saline, or by freeze-drying and then reconstituting the material with normal saline. The same vial of bupivacaine with 1:200,000 epinephrine was used for the second set of experiments. The epinephrine dose was adjusted by adding epinephrine to maintain a constant concentration of epinephrine 2.76×10^−5 M. Ibutilide fumarate was purchased from the MCV Hospitals Pharmacy (Pharmacia & Upjohn Company of Kalamazoo, Mich.). The concentration of ibutilide was held constant at 3.9 nanomoles (nmoles) per mouse. Enhancement of Bupivacaine HCl with Ibutilide. Experiments were conducted to determine whether ibutilide would enhance the local anesthetic effects of bupivacaine. […]
# male ICR mice [2] = assay: Radiant heat tail-flick test after subcutaneous infiltration of the tail (infiltration anesthesia); assay type: in vivo; details: for % Bupivacaine ED50 (95% C.L.): bupivacaine mixed with vehicle or sotalol (10 nmoles), infiltrated in mouse tail
# Method: Methods of handling mice. Male ICR mice (Harlan Laboratories, Indianapolis, Ind.) weighing 27.0±0.4 g were housed 6 to a cage in animal care quarters maintained at 22±2 ° C. on a 12-h light-dark cycle. Food and water were available ad libitum. The mice were brought to a test room (22±2° C. , 12-h light-dark cycle), marked for identification and allowed 16-h to recover from transport and handling. The Institutional Animal Care and Use Committee at the Medical College of Virginia Campus of Virginia Commonwealth University approved all the procedures in this study.
# The tail-flick test. The tail-flick test used to assess for infiltration anesthesia was developed by D'Amour and Smith (1941) and modified by Dewey et al (1970). The tail-flick device is designed to focus a light beam onto the site infiltrated with local anesthetic, without exposing non-injected tissue to the noxious radiant heat stimulus. The intensity was adjusted to yield baseline latencies of between 2- to 4-sec. A single baseline latency was obtained approximately 15-min before the mice were injected with drug. A 10-sec cut-off was used to prevent any potential tissue damage. In experiments testing for potential underlying infiltration anesthesia that was not observed with the higher heat stimulus, the intensity was reduced to yield baseline latencies of about 6-sec. A 12-sec cut-off was used in these experiments.
# Subcutaneous infiltration of bupivacaine. Before infiltration of vehicle or drug, baseline tail-flick latencies were obtained by exposing the tail to noxious radiant heat at the site to be infiltrated with drug. The baseline average over the entire study was 3.1±0.1 sec. The mice were then restrained to allow us unencumbered access to the tail. A 26-gauge ⅝ needle was inserted approximately 1.0 to 1.3 cm longitudinally under the skin in the subcutaneous space in the dorsal aspect of the tail. The needle was attached to a 1-ml syringe (Becton Dickinson, Franklin Lakes, N.J. ) pre-filled with drug solution. A […] volume of drug solution was infiltrated, and the needle was left in place for 5-s to prevent leakage of injectate from the site after removing the needle. During injection, the solution dispersed around the circumference of the tail in a rostral-caudal direction of about 2- to 3-cm. A slight blanching of the skin that reversed within 1 to 2 min indicated the extent of the spread of solution. A non-toxic marking pen was used to mark the most rostral spread of solution. Tail-flick testing was conducted below the area marked on the tail. These methods are detailed in a previous report (Smith et al. 1997).
# Experimental design. Sotalol was solubilized and then mixed with bupivacaine HCl for co-infiltration of the tail. The influence of increasing concentrations of sotalol on the ED50 dose of bupivacaine was also examined. Both baseline and test tail-flick latencies from each animal were converted into the percentage of maximum possible effect (% MPE) according to the method of Harris and Pierson (1964), which was calculated as: % MPE=[(test−baseline)/(10−baseline)]×100. The ordinate was % MPE, while the abscissa was expressed as the dose of sotalol. Complete bupivacaine dose-response curves were generated in the absence and presence of sotalol (10 nmole) for calculation of ED50 and potency ratio values. The ordinate was % MPE, while the abscissa was expressed as the % bupivacaine dose.
# Statistical analyses: The Tail-Flick Latency (sec) values were analyzed with one factor ANOVA for experiments in which different concentrations of sotalol were tested with an ED50 dose of bupivacaine. A statistically significant F-value led to post hoc comparisons using the Tukey's test. The % MPE values for dose-response curves were analyzed in the following manner. ED50 values were calculated using least squares linear regression analysis of % MPE values followed by calculation of 95% confidence limits (C.L.) according to the method of Bliss (1967). […]
# [3] = bupivacaine containing 1:200,000 epinephrine mixed with vehicle or ibutilide (3.9 nmoles), popliteal space, hot-plate
# [4] = hot-plate 56° C., bupivacaine mixed with vehicle or ibutilide (3.9 nmoles), injected in popliteal space, no epinephrine
compound,measurement,setting,value
"CCCCCCCN(CC)CCCC(O)c1ccc(NS(C)(=O)=O)cc1 (racemic) [Ibutilide, (±) N-[4-[4-(Ethylheptylamino)-1-hydroxybutyl]phenyl]methanesulfonamide (E)-2-butenedioate (2:1) salt]","local anesthesia of the drug alone in the presence of 1:200,000 epinephrine",male ICR mice [1]; 1-h time-course,failed to elicit any anesthetic effects
same,local anesthesia of the drug alone (paw-withdrawal latency),male ICR mice [1]; no epinephrine,no anesthesia; also recorded: inactive
same,Potency ratio (95% C.L.),"male ICR mice [1]; bupivacaine + 1:200,000 epinephrine + ibutilide (3.9 nmoles) vs vehicle control, hot-plate",6.8 (4.3 to 12.7)**
same,Potency ratio (95% C.L.),"male ICR mice [1]; bupivacaine + ibutilide (3.9 nmoles) vs bupivacaine + vehicle, hot-plate, no epinephrine",2.8 (1.9 to 3.8)**
same,% Bupivacaine ED50 (95% C.L.),male ICR mice [1]; [3],0.05% (0.04 to 0.06)**
same,% Bupivacaine ED50 (95% C.L.),male ICR mice [1]; [4],0.24% (0.19 to 0.30)**
same,enhancement of the local anesthetic effects of 0.5% bupivacaine,"male ICR mice [1]; ibutilide 3.9 nmoles mixed with 0.5% bupivacaine, 60-min time-course, no epinephrine",markedly enhanced; also recorded: significantly increased
same,duration of enhancement of the local anesthetic effects of 0.5% bupivacaine,"male ICR mice [1]; ibutilide 3.9 nmoles mixed with 0.5% bupivacaine, tested every 5 min for 1-h",35 min
same,"enhancement of the amount (efficacy) of 0.125% bupivacaine + 1:200,000 epinephrine","male ICR mice [1]; ibutilide 3.9 nmoles, 1-h time-course",greatly increased
same,"increase in relative potency of bupivacaine+1:200,000 epinephrine","male ICR mice [1]; in the presence of ibutilide (3.9 nmoles), hot-plate",6.8 fold
same,increase in potency of bupivacaine,"male ICR mice [1]; in the presence of ibutilide (3.9 nmoles), hot-plate, no epinephrine",2.8 fold
"CC(C)NCC(O)c1ccc(NS(C)(=O)=O)cc1.Cl (stereo not shown) [Sotalol, N-[4-[1-hydroxy-2-[(1-methylethyl)amino]ethyl]phenyl]methanesulfonamide monohydrochloride]",Potency ratio (95% C.L.),"male ICR mice [2]; bupivacaine + sotalol (10 nmoles) vs bupivacaine + vehicle, tail-flick, 30-min",2.7 (1.6 to 4.5)
same,% Bupivacaine ED50 (95% C.L.),male ICR mice [2]; tail-flick 30-min later,0.04% (0.03 to 0.06)**
same,increase in potency of bupivacaine,"male ICR mice [2]; in the presence of sotalol (10 nmoles), tail-flick, 30-min",2.7 fold
same,enhancement of the anesthetic effects of an ED50 dose of bupivacaine (0.12%),"male ICR mice [2]; increasing doses of sotalol co-infiltrated, tail-flick 30-min later",enhanced in a dose-dependent fashion
same,anesthetic effect of the drug alone,"male ICR mice [2]; sotalol alone, tail infiltration, tail-flick 30-min later, monohydrochloride",inactive; also recorded: no anesthetic effects
CCCCN1CCCCC1C(=O)Nc1c(C)cccc1C (stereo not shown) [bupivacaine],% Bupivacaine ED50 (95% C.L.),male ICR mice [2]; tail-flick 30-min later,0.11% (0.08 to 0.15)
same,"local anesthesia of the drug alone in the presence of 1:200,000 epinephrine",male ICR mice [1]; 1-h time-course,elicited local anesthesia
same,local anesthesia of the drug alone (paw-withdrawal latency),male ICR mice [1]; no epinephrine,mild level of anesthesia; also recorded: dose-dependent anesthesia
same,% Bupivacaine ED50 (95% C.L.),male ICR mice [1]; [3],0.31% (0.22 to 0.44)
same,% Bupivacaine ED50 (95% C.L.),male ICR mice [1]; [4],0.67% (0.59 to 0.77)
CNC[C@H](O)c1ccc(O)c(O)c1 [epinephrine],"effect of 1:200,000 epinephrine on the efficacy of 0.125% bupivacaine","male ICR mice [1]; time-course experiments, hot-plate",increased
